# Laboratory results from paper PMC10464554 (Journal of Enzyme Inhibition and Medicinal Chemistry, 2023).
# What was measured:
# Nsp5 [1] = details: irreversible inhibitor of Nsp5; cited from earlier work
# SARS-CoV-2 [2] = details: Vero E6 cells, 72 h readout; cited from earlier work
# SARS-CoV-2 [3] = details: replication of SARS-CoV-2 in Vero E6 cells; cited from earlier work
# [4] = molecular target: NT650-Nps5 (recombinant SARS-CoV-2 main protease Nsp5) (Severe acute respiratory syndrome coronavirus 2, UniProt P0DTD1); experiment: biochemical; type: binding
# Nsp5 [5] = details: cited from earlier work
# Vero E6 cells = details: 200–0.1 µM, 24 h, MTT
# SARS-CoV-2 BA.5 strain = type: cell-based
compound,measurement,setting,value
"O=c1c(O)c(-c2cc(O)c(O)c(O)c2)oc2cc(O)cc(O)c12 [Myricetin (2), myricetin]",IC50,Nsp5 [1],630 ± 10 nM
same,Antiviral SARS-CoV-2 activity (CPE inhibition),SARS-CoV-2 [2],devoid of antiviral SARS-CoV-2 activity
same,EC50,SARS-CoV-2 [3],8000 nM
"O=c1oc2c(O)c(O)cc3c(=O)oc4c(O)c(O)cc1c4c23 [Ellagic acid (7), ellagic acid]",Kd,[4],970 ± 140 nM
same,Binding Efficiency Index (BEI),[4]; BEI = pKd/MW (kDa),19.9
same,Dissociation constant (SPR),Nsp5 [5],low micromolar
"CC(C)(C)[C@H](NC(=O)C(F)(F)F)C(=O)N1C[C@H]2[C@@H]([C@H]1C(=O)N[C@H](C#N)C[C@@H]1CCNC1=O)C2(C)C [Nirmatrelvir (1), Nirmatrelvir]",Cell viability (cytotoxic effect),Vero E6 cells,well-tolerated by Vero E6 cells at all the concentrations tested
same,Viral replication (supernatant viral titre),SARS-CoV-2 BA.5 strain,significantly reduce the number of infective particles
